Laboratory results published in US9809624B2, “Neurotensin analogues for radioisotope targeting to neurotensin receptor-positive tumors” (INSERM (Institut National de la Sante et de la Recherche …, priority 2009, dated 2017).
Non-standard residues stand in square brackets, D forms with d. Residues, ends and D or L forms follow the SMILES beside them. Tle = CC(C)(C)[C@H](N)C(=O)O

Key:
[1] = biological target: T1, NTS1 (Homo sapiens, UniProt P30989); experiment: Binding to HT29 cell membranes (competition with 125I-Tyr3-neurotensin); conditions: 50 pM 125I-Tyr3-neurotensin, 45 min room temperature
T1 construct: endogenous in cells; host or cells: HT29 cells (membranes or living cells)
T1 sequence (P30989 whole entry): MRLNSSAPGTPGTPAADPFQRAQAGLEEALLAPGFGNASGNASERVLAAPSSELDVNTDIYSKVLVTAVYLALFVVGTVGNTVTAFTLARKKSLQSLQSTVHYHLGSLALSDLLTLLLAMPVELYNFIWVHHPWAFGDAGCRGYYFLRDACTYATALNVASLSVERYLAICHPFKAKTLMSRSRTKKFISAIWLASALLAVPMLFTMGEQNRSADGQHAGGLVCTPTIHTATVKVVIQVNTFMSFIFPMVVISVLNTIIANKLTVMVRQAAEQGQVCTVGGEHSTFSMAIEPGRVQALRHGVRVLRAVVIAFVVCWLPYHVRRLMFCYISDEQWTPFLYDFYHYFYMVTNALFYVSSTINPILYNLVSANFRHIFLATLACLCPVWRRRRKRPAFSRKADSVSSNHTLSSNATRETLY
Experimental: Membrane bound activity was recovered by filtration onto Whatman GF/B filters presoaked for 1 hour with polyethyleneimine (0.2% in water) and rinsed twice with buffer. Non-specific binding was evaluated in the presence of 10^-6 M neurotensin. Radioactivity was counted and results were analyzed with GraphPad Prism® (GraphPad Software, Inc. San Diego, Calif.). All experiments were performed three times in triplicate. Ki values for binding to HT29 cell membranes and IC50 for binding to cells were used to evaluate affinity (Table 2).

[2] = biological target: T1, NTS1; experiment: Binding to living HT29 cells (competition); conditions: 60 min 37° C., tracer [Lys6(DTPA(111In))]-NT, the labeled DTPA(111In)-peptide itself, or 125I-NT (DOTA-peptides)
Experimental: After washing the wells twice with ice-cold DMEM 0.2% BSA, cells were lysed in 500 μL 0.1N NaOH and radioactivity was counted. Non-specific binding was evaluated in the presence of 10^-6 M neurotensin. Competition curves were analyzed with the “Equilibrium Expert” software (Raguin et al., Anal. Biochem. (2002) 310, 1-14). All experiments were performed three times in triplicate. Ki values for binding to HT29 cell membranes and IC50 for binding to cells were used to evaluate affinity (Table 2).

Compound	Ki [1] [nM]	IC50 [2] [nM]
CC[C@H](C)[C@H](NC(=O)[C@H](Cc1ccc(O)cc1)NC(=O)[C@@H]1CCCN1C(=O)[C@H](CCCNC(=N)N)NC(=O)[C@H](CCCNC(=N)N)NC(=O)[C@@H]1CCCN1C(=O)[C@H](CCCCN)NC(C)=O)C(=O)N[C@@H](CC(C)C)C(=O)O [NT-20.1]	0.072 ± 0.019	0.82 ± 0.08
CC(=O)N[C@@H](CCCCN)C(=O)N1CCC[C@H]1C(=O)N[C@@H](CCCNC(=N)N)C(=O)N[C@@H](CCCNC(=N)N)C(=O)N1CCC[C@H]1C(=O)N[C@@H](Cc1ccc(O)cc1)C(=O)N[C@H](C(=O)N[C@@H](CC(C)C)C(=O)O)C(C)(C)C [NT-20.2, Ac-Lys-Pro-Arg-Arg-Pro-Tyr-Tle-Leu-OH] (Ac-KPRRPY[Tle]L-OH)	0.26 ± 0.07	2.46 ± 0.79
